Key:
[1] = target: Serine/threonine-protein kinase 16 (Homo sapiens, UniProt O75716)
[2] = target: T1, Aurora kinase A (Homo sapiens, UniProt O14965)
T1 sequence (O14965 whole entry): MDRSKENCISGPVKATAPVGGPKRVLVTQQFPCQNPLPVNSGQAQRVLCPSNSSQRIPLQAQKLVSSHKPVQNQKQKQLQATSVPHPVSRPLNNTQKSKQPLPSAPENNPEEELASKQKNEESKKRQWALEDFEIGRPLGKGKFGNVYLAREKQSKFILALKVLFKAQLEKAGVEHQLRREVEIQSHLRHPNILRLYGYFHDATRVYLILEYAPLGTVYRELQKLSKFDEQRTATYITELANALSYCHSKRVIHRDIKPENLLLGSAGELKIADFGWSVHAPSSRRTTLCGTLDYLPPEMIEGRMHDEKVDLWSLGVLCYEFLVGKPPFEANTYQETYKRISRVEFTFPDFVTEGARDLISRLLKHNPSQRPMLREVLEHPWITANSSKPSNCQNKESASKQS

[3] = target: Serine/threonine-protein kinase pim-1 (Homo sapiens, UniProt P11309)
[4] = target: Protein kinase C alpha type (Homo sapiens, UniProt P17252)
[5] = target: Tyrosine-protein kinase BTK (Homo sapiens, UniProt Q06187)
[6] = target: Calcium/calmodulin-dependent protein kinase type 1 (Homo sapiens, UniProt Q14012)
[7] = target: High affinity nerve growth factor receptor (Homo sapiens, UniProt P04629)
[8] = target: T2, Ephrin type-B receptor 4 (Homo sapiens, UniProt P54760)
T2 sequence (P54760 whole entry): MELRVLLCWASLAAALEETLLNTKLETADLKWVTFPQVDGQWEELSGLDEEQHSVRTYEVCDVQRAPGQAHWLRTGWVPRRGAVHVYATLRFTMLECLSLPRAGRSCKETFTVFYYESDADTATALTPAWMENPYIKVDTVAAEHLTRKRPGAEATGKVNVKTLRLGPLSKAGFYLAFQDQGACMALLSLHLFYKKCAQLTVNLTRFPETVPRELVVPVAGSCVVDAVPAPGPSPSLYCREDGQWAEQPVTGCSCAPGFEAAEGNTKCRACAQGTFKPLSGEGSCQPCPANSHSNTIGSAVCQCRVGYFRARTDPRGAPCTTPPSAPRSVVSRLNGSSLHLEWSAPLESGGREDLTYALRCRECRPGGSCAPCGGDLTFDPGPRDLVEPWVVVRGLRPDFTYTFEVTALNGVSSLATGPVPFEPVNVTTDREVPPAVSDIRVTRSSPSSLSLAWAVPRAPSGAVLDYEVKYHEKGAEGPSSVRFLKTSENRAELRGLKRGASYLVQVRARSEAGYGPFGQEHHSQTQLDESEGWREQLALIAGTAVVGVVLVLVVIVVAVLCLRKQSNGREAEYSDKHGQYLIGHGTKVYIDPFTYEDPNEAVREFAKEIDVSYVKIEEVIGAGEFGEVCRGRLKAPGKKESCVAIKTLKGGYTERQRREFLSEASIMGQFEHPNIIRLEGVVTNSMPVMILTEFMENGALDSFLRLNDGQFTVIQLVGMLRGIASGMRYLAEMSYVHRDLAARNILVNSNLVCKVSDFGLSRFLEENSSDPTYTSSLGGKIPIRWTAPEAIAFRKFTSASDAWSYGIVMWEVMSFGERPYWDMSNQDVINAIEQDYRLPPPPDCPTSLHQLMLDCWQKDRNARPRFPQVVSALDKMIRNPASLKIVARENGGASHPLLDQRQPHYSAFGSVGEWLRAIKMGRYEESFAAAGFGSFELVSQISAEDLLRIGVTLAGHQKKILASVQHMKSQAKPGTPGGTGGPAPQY

[9] = target: Serine/threonine-protein kinase PAK 4 (Homo sapiens, UniProt O96013)
[10] = target: Myosin light chain kinase 2, skeletal/cardiac muscle (Homo sapiens, UniProt Q9H1R3)
[11] = target: T3, Mitogen-activated protein kinase 12 (Homo sapiens, UniProt P53778)
T3 sequence (P53778 whole entry): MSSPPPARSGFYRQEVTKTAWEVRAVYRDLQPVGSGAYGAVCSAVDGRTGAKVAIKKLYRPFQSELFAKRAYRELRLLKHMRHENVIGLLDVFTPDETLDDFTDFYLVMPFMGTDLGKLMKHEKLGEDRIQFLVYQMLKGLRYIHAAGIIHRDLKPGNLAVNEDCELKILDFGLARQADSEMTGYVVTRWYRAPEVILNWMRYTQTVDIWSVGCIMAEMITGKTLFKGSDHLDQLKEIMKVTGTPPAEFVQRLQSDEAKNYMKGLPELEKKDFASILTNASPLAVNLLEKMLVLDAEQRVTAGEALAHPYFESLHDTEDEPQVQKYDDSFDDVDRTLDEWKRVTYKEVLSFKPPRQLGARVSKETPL

[12] = target: Focal adhesion kinase 1 (Homo sapiens, UniProt Q05397)
[13] = target: T4, Serine/threonine-protein kinase 17B (Homo sapiens, UniProt O94768)
T4 sequence (O94768 whole entry): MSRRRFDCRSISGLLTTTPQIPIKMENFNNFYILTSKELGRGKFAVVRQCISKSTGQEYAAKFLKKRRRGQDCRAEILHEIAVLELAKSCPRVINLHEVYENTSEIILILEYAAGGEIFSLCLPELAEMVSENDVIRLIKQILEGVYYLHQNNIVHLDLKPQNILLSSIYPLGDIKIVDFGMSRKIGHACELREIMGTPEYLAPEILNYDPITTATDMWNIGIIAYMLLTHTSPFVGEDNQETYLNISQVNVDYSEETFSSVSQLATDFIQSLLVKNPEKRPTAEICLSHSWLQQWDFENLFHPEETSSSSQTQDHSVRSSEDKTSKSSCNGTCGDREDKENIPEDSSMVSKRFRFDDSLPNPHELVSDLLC

[14] = target: Serine/threonine-protein kinase PAK 5 (Homo sapiens, UniProt Q9P286)
[15] = target: Calcium/calmodulin-dependent protein kinase type II subunit alpha (Homo sapiens, UniProt Q9UQM7)

Measured: Kd

Chain of Calcium/calmodulin-dependent protein kinase type II subunit alpha (Q9UQM7 whole entry): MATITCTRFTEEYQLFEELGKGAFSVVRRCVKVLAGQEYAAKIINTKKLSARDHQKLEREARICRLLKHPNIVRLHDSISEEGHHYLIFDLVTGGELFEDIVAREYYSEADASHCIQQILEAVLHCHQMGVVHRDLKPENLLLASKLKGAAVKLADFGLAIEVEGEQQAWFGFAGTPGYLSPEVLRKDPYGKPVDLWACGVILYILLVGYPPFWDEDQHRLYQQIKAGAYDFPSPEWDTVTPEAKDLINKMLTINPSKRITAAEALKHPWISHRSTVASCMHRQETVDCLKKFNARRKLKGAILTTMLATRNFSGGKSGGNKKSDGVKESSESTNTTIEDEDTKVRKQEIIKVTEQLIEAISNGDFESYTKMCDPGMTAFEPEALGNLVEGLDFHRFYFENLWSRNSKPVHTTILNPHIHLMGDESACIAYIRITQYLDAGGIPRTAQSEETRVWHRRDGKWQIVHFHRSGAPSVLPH
Chain of Focal adhesion kinase 1 (Q05397 whole entry): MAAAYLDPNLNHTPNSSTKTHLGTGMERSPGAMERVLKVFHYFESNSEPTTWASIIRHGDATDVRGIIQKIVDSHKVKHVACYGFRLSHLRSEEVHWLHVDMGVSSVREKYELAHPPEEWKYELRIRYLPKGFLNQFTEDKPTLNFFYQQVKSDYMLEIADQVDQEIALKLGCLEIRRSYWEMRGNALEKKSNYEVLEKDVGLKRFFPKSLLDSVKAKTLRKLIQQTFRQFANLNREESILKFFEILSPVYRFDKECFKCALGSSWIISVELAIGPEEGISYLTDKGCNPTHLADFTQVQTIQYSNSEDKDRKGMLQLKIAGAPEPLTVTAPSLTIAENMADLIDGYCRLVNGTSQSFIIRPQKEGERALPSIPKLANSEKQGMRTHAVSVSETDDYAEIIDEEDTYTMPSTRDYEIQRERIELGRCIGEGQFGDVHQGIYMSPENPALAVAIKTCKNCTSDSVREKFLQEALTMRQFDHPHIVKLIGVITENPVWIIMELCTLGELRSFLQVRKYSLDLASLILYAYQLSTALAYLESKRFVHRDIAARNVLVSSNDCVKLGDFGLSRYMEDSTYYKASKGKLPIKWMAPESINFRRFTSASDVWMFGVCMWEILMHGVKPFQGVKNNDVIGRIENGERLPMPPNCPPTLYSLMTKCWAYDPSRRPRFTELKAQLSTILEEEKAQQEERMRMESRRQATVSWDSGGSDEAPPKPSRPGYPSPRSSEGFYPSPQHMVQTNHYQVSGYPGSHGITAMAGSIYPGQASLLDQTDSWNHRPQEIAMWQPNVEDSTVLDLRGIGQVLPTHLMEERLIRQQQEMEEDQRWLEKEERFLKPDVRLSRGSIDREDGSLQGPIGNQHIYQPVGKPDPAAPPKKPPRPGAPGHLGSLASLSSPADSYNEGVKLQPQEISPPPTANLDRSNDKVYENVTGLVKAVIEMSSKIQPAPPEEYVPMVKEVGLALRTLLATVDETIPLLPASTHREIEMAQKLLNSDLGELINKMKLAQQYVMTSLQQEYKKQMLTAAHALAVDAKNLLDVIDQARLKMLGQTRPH
Chain of Serine/threonine-protein kinase pim-1 (P11309 whole entry): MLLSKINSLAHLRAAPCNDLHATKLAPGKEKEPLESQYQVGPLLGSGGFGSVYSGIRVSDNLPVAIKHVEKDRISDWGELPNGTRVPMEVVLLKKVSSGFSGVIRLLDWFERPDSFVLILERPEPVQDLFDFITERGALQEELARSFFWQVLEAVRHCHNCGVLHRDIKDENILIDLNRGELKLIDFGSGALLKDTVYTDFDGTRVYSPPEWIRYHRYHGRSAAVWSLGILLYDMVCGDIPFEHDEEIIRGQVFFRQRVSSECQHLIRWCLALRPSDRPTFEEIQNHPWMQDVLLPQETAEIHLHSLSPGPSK
Chain of Serine/threonine-protein kinase 16 (O75716 whole entry): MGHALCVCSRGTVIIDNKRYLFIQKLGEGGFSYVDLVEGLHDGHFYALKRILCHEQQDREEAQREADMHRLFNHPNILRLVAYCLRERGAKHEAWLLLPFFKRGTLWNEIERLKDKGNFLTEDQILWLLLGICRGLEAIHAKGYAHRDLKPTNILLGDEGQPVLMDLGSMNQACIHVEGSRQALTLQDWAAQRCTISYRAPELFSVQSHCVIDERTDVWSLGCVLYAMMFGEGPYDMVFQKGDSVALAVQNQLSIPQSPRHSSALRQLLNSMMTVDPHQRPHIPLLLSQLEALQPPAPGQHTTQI
Chain of High affinity nerve growth factor receptor (P04629 whole entry): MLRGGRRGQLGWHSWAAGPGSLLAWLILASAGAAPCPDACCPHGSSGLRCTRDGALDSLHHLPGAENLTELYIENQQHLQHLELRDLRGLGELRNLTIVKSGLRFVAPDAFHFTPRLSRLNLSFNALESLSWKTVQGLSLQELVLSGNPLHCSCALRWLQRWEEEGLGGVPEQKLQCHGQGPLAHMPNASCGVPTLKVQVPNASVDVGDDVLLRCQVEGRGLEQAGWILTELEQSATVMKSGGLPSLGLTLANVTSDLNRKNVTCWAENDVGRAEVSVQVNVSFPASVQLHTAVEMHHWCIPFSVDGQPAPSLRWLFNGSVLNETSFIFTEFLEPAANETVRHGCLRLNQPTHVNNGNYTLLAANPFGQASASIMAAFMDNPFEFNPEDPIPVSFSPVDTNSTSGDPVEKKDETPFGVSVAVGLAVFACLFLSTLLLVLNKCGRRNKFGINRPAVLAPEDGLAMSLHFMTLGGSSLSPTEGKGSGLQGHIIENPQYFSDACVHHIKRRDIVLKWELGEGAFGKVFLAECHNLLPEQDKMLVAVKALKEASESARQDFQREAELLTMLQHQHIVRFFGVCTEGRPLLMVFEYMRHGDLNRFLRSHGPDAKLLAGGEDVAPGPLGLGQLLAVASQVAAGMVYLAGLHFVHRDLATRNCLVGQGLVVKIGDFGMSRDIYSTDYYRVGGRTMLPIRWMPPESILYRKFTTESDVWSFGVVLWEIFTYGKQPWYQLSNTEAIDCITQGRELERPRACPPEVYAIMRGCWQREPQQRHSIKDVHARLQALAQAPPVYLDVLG
Chain of Serine/threonine-protein kinase PAK 5 (Q9P286 whole entry): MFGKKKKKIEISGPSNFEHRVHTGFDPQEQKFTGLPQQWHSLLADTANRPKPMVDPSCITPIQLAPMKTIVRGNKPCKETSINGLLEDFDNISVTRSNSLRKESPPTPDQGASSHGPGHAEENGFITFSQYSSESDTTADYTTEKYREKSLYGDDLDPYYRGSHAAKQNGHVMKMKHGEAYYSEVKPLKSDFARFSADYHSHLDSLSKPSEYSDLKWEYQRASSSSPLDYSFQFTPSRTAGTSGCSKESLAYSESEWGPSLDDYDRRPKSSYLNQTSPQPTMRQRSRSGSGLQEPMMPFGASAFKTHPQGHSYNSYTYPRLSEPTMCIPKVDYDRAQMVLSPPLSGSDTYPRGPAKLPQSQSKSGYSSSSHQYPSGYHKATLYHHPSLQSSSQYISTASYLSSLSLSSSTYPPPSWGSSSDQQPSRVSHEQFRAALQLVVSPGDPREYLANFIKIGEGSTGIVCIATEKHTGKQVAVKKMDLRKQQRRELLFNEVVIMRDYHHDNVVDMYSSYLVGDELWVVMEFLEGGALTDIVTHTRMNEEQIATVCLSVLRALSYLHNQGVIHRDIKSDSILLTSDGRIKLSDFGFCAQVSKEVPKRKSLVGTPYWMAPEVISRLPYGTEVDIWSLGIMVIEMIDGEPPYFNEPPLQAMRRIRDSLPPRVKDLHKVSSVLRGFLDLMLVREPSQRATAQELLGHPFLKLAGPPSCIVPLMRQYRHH
Chain of Serine/threonine-protein kinase PAK 4 (O96013 whole entry): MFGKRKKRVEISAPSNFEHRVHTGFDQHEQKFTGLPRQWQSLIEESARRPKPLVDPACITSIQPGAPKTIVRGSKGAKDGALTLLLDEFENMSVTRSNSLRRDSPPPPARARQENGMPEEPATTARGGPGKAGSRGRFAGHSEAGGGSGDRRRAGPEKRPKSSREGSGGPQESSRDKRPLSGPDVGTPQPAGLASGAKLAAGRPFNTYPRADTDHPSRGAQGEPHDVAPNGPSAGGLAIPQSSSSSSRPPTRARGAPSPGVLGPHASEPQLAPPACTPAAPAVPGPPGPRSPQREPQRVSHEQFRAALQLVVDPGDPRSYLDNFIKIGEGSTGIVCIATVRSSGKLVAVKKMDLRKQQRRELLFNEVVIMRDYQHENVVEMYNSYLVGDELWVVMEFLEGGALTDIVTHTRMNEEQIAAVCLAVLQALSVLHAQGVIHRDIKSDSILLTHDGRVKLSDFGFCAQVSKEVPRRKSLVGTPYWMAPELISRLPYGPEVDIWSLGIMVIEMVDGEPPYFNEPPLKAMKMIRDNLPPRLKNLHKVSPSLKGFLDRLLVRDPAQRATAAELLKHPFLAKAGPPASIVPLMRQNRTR

CC[C@H](CO)Nc1nc(NCc2ccccc2)c2ncn(C(C)C)c2n1 [SELICICLIB]
Not Active: all assays above

Source: ChEMBL document CHEMBL1144455, “A small molecule-kinase interaction map for clinical kinase inhibitors” (Nat Biotechnol, 2005)
